Laboratory results from patent US12428394B2, “2,4-disubstituted pyrimidine derivative, preparation method therefor and use thereof” (CHENGDU ZENITAR BIOMEDICAL TECHNOLOGY CO., LTD., priority 2019, dated 2025).
Like-named read-outs stand apart in the source and are kept apart here.

Columns and labels:
JAK2 = molecular target: T1, JAK2 (Homo sapiens, UniProt O60674); test: In vitro kinase activity experiment, JAK2; assay type: biochemical; conditions: inhibition rate of enzyme at 500 nM; measured by Eurofins
T1 construct: purchased Eurofins
Summary of the method: (§1)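 Radiometric filter-binding kinase assay: each kinase with its substrate, γ33P-ATP, 10 mM magnesium acetate and graded compound in 8 mM MOPS pH 7.0, 0.2 mM EDTA, 10 mM MnCl2. MgATP-started, 40 min at room temperature, stopped with 3% phosphate. Spotted on Filtermat A, washed, scintillation-counted.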

[1] = system: MOLM-13 cells (FLT3-ITD-/+); test: Inhibition of cell proliferation by MTT experiment, MOLM-13; assay type: cell-based, human; conditions: MTT, 72 h, read-out: IC50 value on cell proliferation inhibition, MOLM-13 FLT3-ITD-/+
Summary of the method: (§2)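 MTT assay in MV4-11, MOLM-13 (FLT3-ITD) and SET-2 (JAK2 V617F) cells at 10,000–15,000 cells/well in IMDM with 10% FBS. Cells are exposed to compound for 72 h at 37 °C, then to MTT for 1–3 h. IC50 is fitted from inhibition rates across concentrations.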

SET-2 cells (JAK2 V617F) = test: Inhibition of cell proliferation by MTT experiment, SET-2; assay type: cell-based; conditions: MTT, 72 h, read-out: IC50 value on cell proliferation inhibition, SET-2 (V617F)
Summary of the method: as §2

[2] = system: MV4-11 cells (FLT3-ITD+/+); test: Inhibition of cell proliferation by MTT experiment, MV4-11; assay type: cell-based, human; conditions: MTT, 72 h, read-out: IC50 value on cell proliferation inhibition, MV4-11 FLT3-ITD+/+
Summary of the method: as §2

FLT3 = molecular target: T2, FLT3 (Homo sapiens, UniProt P36888); test: In vitro kinase activity experiment, FLT3; assay type: biochemical; conditions: inhibition rate of enzyme at 500 nM, measured by Eurofins; for inhibition at 0.5 µM: 40 min, read-out: Kinase activity @ 500 nM (%) FLT3
T2 construct: purchased Eurofins
T2 sequence (P36888 27-993): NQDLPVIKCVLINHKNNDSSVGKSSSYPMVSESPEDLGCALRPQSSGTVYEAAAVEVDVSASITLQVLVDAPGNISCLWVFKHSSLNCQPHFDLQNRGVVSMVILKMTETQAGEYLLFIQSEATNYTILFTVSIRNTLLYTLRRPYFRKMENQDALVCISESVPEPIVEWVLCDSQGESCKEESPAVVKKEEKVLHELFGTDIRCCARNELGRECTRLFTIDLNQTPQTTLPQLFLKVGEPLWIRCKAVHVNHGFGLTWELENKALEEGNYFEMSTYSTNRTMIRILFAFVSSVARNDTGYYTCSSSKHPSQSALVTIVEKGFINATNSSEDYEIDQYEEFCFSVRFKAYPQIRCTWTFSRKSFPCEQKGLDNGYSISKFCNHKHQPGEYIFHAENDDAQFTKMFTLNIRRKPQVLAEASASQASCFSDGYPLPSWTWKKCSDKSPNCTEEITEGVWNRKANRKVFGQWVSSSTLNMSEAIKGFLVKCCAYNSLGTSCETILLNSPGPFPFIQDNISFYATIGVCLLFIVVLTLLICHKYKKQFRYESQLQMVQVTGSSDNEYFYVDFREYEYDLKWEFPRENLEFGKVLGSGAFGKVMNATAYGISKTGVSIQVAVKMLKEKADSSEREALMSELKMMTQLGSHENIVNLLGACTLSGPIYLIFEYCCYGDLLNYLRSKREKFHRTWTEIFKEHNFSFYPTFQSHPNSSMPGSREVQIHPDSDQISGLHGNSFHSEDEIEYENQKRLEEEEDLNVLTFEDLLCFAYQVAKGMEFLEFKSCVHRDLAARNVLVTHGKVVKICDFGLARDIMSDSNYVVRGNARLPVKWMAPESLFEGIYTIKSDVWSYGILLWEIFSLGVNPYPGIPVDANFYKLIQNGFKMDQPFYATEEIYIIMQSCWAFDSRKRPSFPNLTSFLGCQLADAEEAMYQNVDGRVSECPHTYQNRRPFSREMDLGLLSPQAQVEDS
Summary of the method: as §1

T1 sequence (O60674 whole entry): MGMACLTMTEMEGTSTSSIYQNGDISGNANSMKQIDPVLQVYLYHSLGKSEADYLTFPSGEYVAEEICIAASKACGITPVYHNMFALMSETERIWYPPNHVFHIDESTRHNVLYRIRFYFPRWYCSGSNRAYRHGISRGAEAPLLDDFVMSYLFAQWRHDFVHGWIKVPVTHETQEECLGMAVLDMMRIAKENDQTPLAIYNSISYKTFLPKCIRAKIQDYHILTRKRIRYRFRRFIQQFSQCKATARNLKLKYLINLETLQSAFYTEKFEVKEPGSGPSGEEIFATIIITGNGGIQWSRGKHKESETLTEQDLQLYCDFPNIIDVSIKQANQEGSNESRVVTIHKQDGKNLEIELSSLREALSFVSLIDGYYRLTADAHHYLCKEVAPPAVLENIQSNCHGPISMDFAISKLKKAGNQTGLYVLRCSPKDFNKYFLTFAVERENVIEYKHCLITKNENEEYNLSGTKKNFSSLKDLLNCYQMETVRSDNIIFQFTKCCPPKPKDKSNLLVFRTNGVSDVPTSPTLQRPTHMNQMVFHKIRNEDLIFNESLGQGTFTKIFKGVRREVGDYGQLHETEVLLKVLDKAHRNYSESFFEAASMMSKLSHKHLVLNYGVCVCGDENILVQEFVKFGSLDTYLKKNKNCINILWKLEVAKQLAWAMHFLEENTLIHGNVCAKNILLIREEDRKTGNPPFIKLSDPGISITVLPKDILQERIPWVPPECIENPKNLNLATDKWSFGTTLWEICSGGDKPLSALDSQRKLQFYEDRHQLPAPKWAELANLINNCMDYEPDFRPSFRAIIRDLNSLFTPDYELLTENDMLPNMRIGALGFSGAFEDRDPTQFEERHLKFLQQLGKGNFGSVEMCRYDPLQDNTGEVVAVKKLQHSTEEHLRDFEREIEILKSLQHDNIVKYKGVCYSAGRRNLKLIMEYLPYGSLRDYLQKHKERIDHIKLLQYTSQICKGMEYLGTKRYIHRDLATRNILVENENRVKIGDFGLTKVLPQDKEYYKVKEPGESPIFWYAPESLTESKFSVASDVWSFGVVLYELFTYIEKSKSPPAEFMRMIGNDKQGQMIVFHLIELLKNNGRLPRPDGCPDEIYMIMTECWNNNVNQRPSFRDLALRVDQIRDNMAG

Row | SMILES | Kinase activity @ 500 nM (%) JAK2 (JAK2) | IC50 ([1]; Homo sapiens, MOLM-13) | IC50 (SET-2 cells (JAK2 V617F); Homo sapiens, SET-2) | IC50 ([2]; Homo sapiens, MV4-11) | inhibition at 0.5 µM (FLT3) | IC50 [1] | IC50 (SET-2 cells (JAK2 V617F)) | IC50 [2] | Kinase activity @ 500 nM (%) FLT3 (FLT3)
1 | CCCN1CCN(CCN(C)C2CCN(c3ccc(Nc4ncc(C)c(-c5cnn(C(C)C)c5)n4)cc3F)CC2)CC1 [CLJ-57, N-(3-fluoro-4-(4-(methyl (4-propyl-1-piperazine ethyl)amino)piperidine-1-yl)phenyl)-4-(1-isopropyl-1H-pyrazole-4-yl)-5-methylpyrimidine-2-amine] | 97% | 10 to 100 nM | 100 to 1000 nM | 1 to 10 nM | 96% |  |  |  | 
2 | Cc1cnc(Nc2ccc(N3CCC(N(C)CCN4CCN(C(C)C)CC4)CC3)c(F)c2)nc1-c1cnn(C(C)C)c1 [CLJ-58, N-(3-fluoro-4-(4-(methyl (4-isopropyl-1-piperazine ethyl)amino)piperidine-1-yl)phenyl)-4-(1-isopropyl-1H-pyrazole-4-yl)-5-methylpyrimidine-2-amine] | 95% | 10 to 100 nM | 100 to 1000 nM | 1 to 10 nM | 96% |  |  |  | 
3 | CCN(CCN1CCOCC1)C1CCN(c2ccc(Nc3ncc(C)c(-c4cnn(C(C)C)c4)n3)cc2F)CC1 [CLJ-59, N-(3-fluoro-4-(4-(ethyl(morpholinoethyl)amino)piperidine-1-yl)phenyl)-4-(1-isopropyl-1H-pyrazole-4-yl)-5-methylpyrimidine-2-amine] | 98% | 100 to 1000 nM | 100 to 1000 nM | 1 to 10 nM | 97% |  |  |  | 
4 | CCCN(CCN1CCOCC1)C1CCN(c2ccc(Nc3ncc(C)c(-c4cnn(C(C)C)c4)n3)cc2F)CC1 [CLJ-60, N-(3-fluoro-4-(4-(propyl(morpholinoethyl)amino)piperidine-1-yl)phenyl)-4-(1-isopropyl-1H-pyrazole-4-yl)-5-methylpyrimidine-2-amine] | 100% | 10 to 100 nM | 100 to 1000 nM | 1 to 10 nM | 97% |  |  |  | 
5 | Cc1cnc(Nc2ccc(N3CCC(CN(C)CCN4CCOCC4)CC3)c(F)c2)nc1-c1cnn(C(C)C)c1 [CLJ-61, N-(3-fluoro-4-(4-(methyl(morpholinoethyl)aminomethyl)piperidine-1-yl)phenyl)-4-(1-isopropyl-1H-pyrazole-4-yl)-5-methylpyrimidine-2-amine] | 99% | 10 to 100 nM | 100 to 1000 nM | 1 to 10 nM | 98% |  |  |  | 
6 | Cc1cnc(Nc2ccc(N3CCC[C@@H](N(C)C(=O)CCC#N)C3)c(F)c2)nc1-c1cnn(C(C)C)c1 [CLJ-65, (R)-3-cyano-N-(1-(2-fluoro-4-((4-(1-isopropyl-1H-pyrazole-4-yl)-5-methylpyrimidine-2-yl)amino)phenyl)piperidine-3-yl)-N-methylpropionamide] | 90% | 10 to 100 nM | 100 to 1000 nM | 10 to 100 nM | 89% |  |  |  | 
7 | Cc1cnc(Nc2ccc(N3CCC4(CC3)CNC4)c(F)c2)nc1-c1cnn(C(C)C)c1 [CLJ-66, N-(3-fluoro-4-(2,7-diazaspiro[3.5]nonane-7-yl)phenyl)-4-(1-isopropyl-1H-pyrazole-4-yl)-5-methylpyrimidine-2-amine] | 93% | 100 to 1000 nM | 100 to 1000 nM | 10 to 100 nM | 94% |  |  |  | 
8 | Cc1cnc(Nc2ccc(N3CCC4(CC3)CN(CCO)C4)c(F)c2)nc1-c1cnn(C(C)C)c1 [CLJ-67, N-(3-fluoro-4-(2,7-diazaspiro[3.5]nonane-2-hydroxyethyl-7-yl)phenyl)-4-(1-isopropyl-1H-pyrazole-4-yl)-5-methylpyrimidine-2-amine] | 96% |  |  |  |  | 100 to 1000 nM | 100 to 1000 nM | 10 to 100 nM | 98%
9 | CCCC(O)CN1CC2(CCN(c3ccc(Nc4ncc(C)c(-c5cnn(C(C)C)c5)n4)cc3F)CC2)C1 (centres unmarked) [CLJ-70, N-(3-fluoro-4-(2,7-diazaspiro [3.5]nonane-2-hydroxypentyl-7-yl)phenyl)-4-(1-isopropyl-1H-pyrazol-4-yl)-5-methylpyrimidine-2-amine] | 90% |  |  |  |  | 10 to 100 nM | 100 to 1000 nM | 10 to 100 nM | 91%
10 | CCN1CC2(CCN(c3ccc(Nc4ncc(C)c(-c5cnn(C(C)C)c5)n4)cc3F)CC2)C1 [CLJ-71, N-(3-fluoro-4-(2,7-diazaspiro [3.5]nonane-2-ethyl-7-yl)phenyl)-4-(1-isopropyl-1H-pyrazole-4-yl)-5-methylpyrimidine-2-amine] | 91% | 10 to 100 nM | 100 to 1000 nM | 1 to 10 nM | 93% |  |  |  | 
11 | CCCN1CC2(CCN(c3ccc(Nc4ncc(C)c(-c5cnn(C(C)C)c5)n4)cc3F)CC2)C1 [CLJ-72, N-(3-fluoro-4-(2,7-diazaspiro [3.5]nonane-2-propyl-7-yl)phenyl)-4-(1-isopropyl-1H-pyrazole-4-yl)-5-methylpyrimidine-2-amine] | 92% | 10 to 100 nM | 100 to 1000 nM | 10 to 100 nM | 92% |  |  |  | 
12 | CCCCN1CC2(CCN(c3ccc(Nc4ncc(C)c(-c5cnn(C(C)C)c5)n4)cc3F)CC2)C1 [CLJ-73, N-(3-fluoro-4-(2,7-diazaspiro [3.5]nonane-2-butyl-7-yl)phenyl)-4-(1-isopropyl-1H-pyrazole-4-yl)-5-methylpyrimidine-2-amine] | 91% | 100 to 1000 nM | 100 to 1000 nM | 100 to 1000 nM | 97% |  |  |  | 
13 | CCCCCCN1CC2(CCN(c3ccc(Nc4ncc(C)c(-c5cnn(C(C)C)c5)n4)cc3F)CC2)C1 [CLJ-74, N-(3-fluoro-4-(2,7-diazaspiro [3.5]nonane-2-hexyl-7-yl)phenyl)-4-(1-isopropyl-1H-pyrazole-4-yl)-5-methylpyrimidine-2-amine] | 98% | 10 to 100 nM | 10 to 100 nM | 10 to 100 nM | 97% |  |  |  | 
14 | Cc1cnc(Nc2ccc(N3CCC4(CC3)CN(C(C)C)C4)c(F)c2)nc1-c1cnn(C(C)C)c1 [CLJ-75, N-(3-fluoro-4-(2,7-diazaspiro [3.5]nonane-2-isopropyl-7-yl)phenyl)-4-(1-isopropyl-1H-pyrazole-4-yl)-5-methylpyrimidine-2-amine] | 96% | 1 to 10 nM | 10 to 100 nM | 1 to 10 nM | 99% |  |  |  | 
15 | Cc1cnc(Nc2ccc(N3CCC4(CC3)CN(C3CCCC3)C4)c(F)c2)nc1-c1cnn(C(C)C)c1 [CLJ-76, N-(3-fluoro-4-(2,7-diazaspiro [3.5]nonane-2-cyclopentyl-7-yl)phenyl)-4-(1-isopropyl-1H-pyrazole-4-yl)-5-methylpyrimidine-2-amine] | 59% | 100 to 1000 nM | 100 to 1000 nM | 100 to 1000 nM | 67% |  |  |  | 
16 | C=CC(=O)CCN1CC2(CCN(c3ccc(Nc4ncc(C)c(-c5cnn(C(C)C)c5)n4)cc3F)CC2)C1 [CLJ-77, 1-(7-(2-fluoro-4-((4-(1-isopropyl-1H-pyrazole-4-yl)-5-methylpyrimidine-2-yl)-amino)-phenyl)-2,7-diazaspiro [3.5]nonane-2-yl)-4-pentenamide] | 54% | 100 to 1000 nM | 100 to 1000 nM | 100 to 1000 nM | 55% |  |  |  | 
